Experimental data from paper PMC12434536, “Radiosynthesis and Preclinical Evaluation of a Carbon-11 Labeled Phosphodiesterase 7 Inhibitor for PET Neuroimaging” (ACS Medicinal Chemistry Letters, 2025).

What was measured:
PDE7 [1] = experiment: PET imaging in nonhuman primates (baseline and self-blocking); type: in vivo, Cynomolgus monkeys; conditions: monkeys, self-blocking, 0.4 or 1 mg/kg
Method: Cynomolgus monkeys used for PET/CT scan were deprived of food for 12h but allowed to drink water at any time. Animals (Male, bodyweight 5.0-5.2 kg) were anesthetized with ketamine, placed into the scanner (GE Discovery Elite 690, USA), and maintained with 2% isoflurane and 98% oxygen. A solution of [11C]27 (6.24–9.84 mCi) was injected into the monkey via a venous catheter, followed by a dynamic PET scan. For the blocking study, the blocking reagent reference compound 27 (0.4 or 1.0 mg/kg, iv) was used, followed by the injection of [11C]27. Time-activity curves of each brain region were extracted from the corresponding VOIs and brain uptake was decay-corrected and expressed as SUV. biodistribution studies in miceWhole-body ex vivo

[2] = tested on: CYP2C9, CYP2C19, CYP2D6, CYP3A4; experiment: CYP450 isoform inhibition profiling, other isoforms; type: in vitro ADME; conditions: all isoforms except CYP1A2; read-out: IC50 against the other CYP450 isoforms
Method: page 5: protein-ligand complex were saved and were then loaded into Schrödinger Maestro to generate the ligand interaction plot. In vitro inhibitory assay to PDE7 of compound 27 and selectivity to other PDEs Functional activity of target compound 27 for inhibition of PDE7A activity and the selectivity over other PDE isozymes ([…], and 10A) were evaluated by Eurofins Panlabs Discovery Services and Reaction Biology Corp., respectively. Human recombinant enzymes were used for the assays. The inhibitory assays were performed and calculated in duplicate at 3 μM. If the inhibition percentage was less […] duplicate. CYP450 isoform metabolism and in vitro safety profiling The inhibitory constant of compound 26 toward cytochrome P450-dependent metabolic pathways was determined for individual CYP isoform (CYP1A2, CYP2C9, CYP2C19, CYP2D6, and CYP3A4). Reference inhibitors were included as positive controls. A 10 μM solution of compound 27 was used for initial screening. If the inhibition percentage was less than 50%, the experiment was stopped. […] gradient concentrations of compound 27 were used for IC 50 determination. The P450 reactions were detected at Ext/Em: 405 nm/460 nm (530 nm/605 nm for CYP2C9) in a S3 page 6: […] IC50 curves were plotted using a non-linear regression model with Graphpad Prism 6. […] Plasma and brain samples were quantified by LC-MS/MS method. […]

[3] = Plasma protein binding (free fraction); type: in vitro ADME; conditions: mouse, rat, and human plasma
Method: The general procedure for lipophilicity measurement was previously described, 4 with minor modification in this work. Briefly, the measurement of LogD value was carried out by mixing [11C]27 (radiochemical purity > 99%) with n-octanol (3.0 g) and PBS (0.1 M, 3.0 g) in a test tube. Both n-octanol and PBS were pre-saturated with each other prior to use. The tube was first vortexed for 5 min, followed by centrifugation (~3500-4000 rpm) for an additional 5 min. PBS and n-octanol were aliquoted, weighed and the radioactivity in each component was measured using a Cobra Model 5002/5003 gamma counter. The LogD was determined by Log [ratio of radioactivity in n-octanol and aqueous layer, respectively] (n = […]
For the evaluation of plasma protein binding,5 55.5 MBq radiotracer was added to 150 μL of plasma, which was pre-incubated under 37 °C for 5 min (n = 3). The samples were incubated at 37 °C for 10 min. To each 150 μL of radiotracer-plasma solution was added 300 μL of ice-cold PBS and all samples were briefly vortexed. […] The radioactivity (in Becquerel) was measured in the protein fraction (Aprotein), filtrate, and filter unit using a gamma counter (Wizard, PerkinElmer), Atotal was calculated as the sum of radioactivity, and the free fraction f u was calculated according to the following eq.: f u = 1-

PDE7 [4] = experiment: PET imaging in rats (baseline and self-blocking); type: in vivo, Sprague-Dawley rats; conditions: SD rats, self-blocking, 1 mg/kg
Method: page 10: All animal experiments were approved by the Institutional Animal Care and Use Committee of Massachusetts General Hospital or the National Institute of Radiological Sciences (Japan). C57BL/6 mice (female; 8 weeks, 20-25 g) and Sprague-Dawley rats (male; 8-9 weeks; 264-310 g) were kept on a 12 h light/12 h dark cycle and were allowed food and water ad libitum. Rodent PET scans were carried out using a […] (Sofie Biosciences, Culver, CA, USA) or a Siemens Inveon PET/CT system. Animals were kept under anesthesia using 1-2% (v/v) isoflurane in oxygen during the scan. The radiotracer (1.85 MBq for mice; 42-53 MBq for rats) was injected into the tail vein via a preinstalled catheter. A dynamic scan in 3D list mode was acquired for 60 min. The PET dynamic images were reconstructed using the manufacturer's acquisition software. Volumes of interest, including whole brain, cortex, striatum, hippocampus, thalamus and cerebellum were placed using AMIDE / PMOD software. The radioactivity was decay-corrected and expressed as standardized uptake value (SUV = radioactivity per mL tissue / injected radioactivity × bodyweight). S8

[5] = tested on: other PDE isozymes (PDE1A/B/C, 2A, 3A/B, 4A/B/C/D, 5A, 8A, 9A, and 10A); experiment: Selectivity over other PDE isozymes; type: biochemical; conditions: at 3 μM of compound 27; human recombinant enzymes
Method: protein-ligand complex were saved and were then loaded into Schrödinger Maestro to generate the ligand interaction plot.
In vitro inhibitory assay to PDE7 of compound 27 and selectivity to other PDEs Functional activity of target compound 27 for inhibition of PDE7A activity and the selectivity over other PDE isozymes (PDE1A/B/C, 2A, 3A/B, 4A/B/C/D, 5A, 8A, 9A, and 10A) were evaluated by Eurofins Panlabs Discovery Services and Reaction Biology Corp., respectively. Human recombinant enzymes were used for the assays. The inhibitory assays were performed and calculated in duplicate at 3 µM. If the inhibition percentage was less than 50%, the assay for half-maximal inhibitory concentration (IC50) value was conducted in […]
CYP450 isoform metabolism and in vitro safety profiling
The inhibitory constant of compound 26 toward cytochrome P450-dependent metabolic pathways was determined for individual CYP isoform (CYP1A2, CYP2C9, CYP2C19, CYP2D6, and CYP3A4). Reference inhibitors were included as positive controls. A 10 µM solution of compound 27 was used for initial screening. If the inhibition percentage was less than 50%, the experiment was stopped. If the inhibition potency was greater than 50%, the gradient concentrations of compound 27 were used for IC 50 determination. The P450 reactions were detected at Ext/Em: 405 nm/460 nm (530 nm/605 nm for CYP2C9) in a […]

Compound: COc1ccc(Cl)c2c1C1(CCCCC1)NC(=O)N2 [Compound 27]
- effect of pretreatment on [11C]27 uptake in all assessed brain regions (PDE7 [1]): moderately reduced
- IC50 at 80 min [2]: ≥ 10 µM
- fraction unbound at 10 min [3]: ≥ 0.01
- effect of pretreatment on [11C]27 brain uptake (PDE7 [4]): marginally reduced brain uptake
- % inhibition of other PDE isomers [5]: < 50%
